SMILES strings stand for the structures. Where a name gives a salt, the structure may show the parent alone.

T1 sequence (P25103 whole entry): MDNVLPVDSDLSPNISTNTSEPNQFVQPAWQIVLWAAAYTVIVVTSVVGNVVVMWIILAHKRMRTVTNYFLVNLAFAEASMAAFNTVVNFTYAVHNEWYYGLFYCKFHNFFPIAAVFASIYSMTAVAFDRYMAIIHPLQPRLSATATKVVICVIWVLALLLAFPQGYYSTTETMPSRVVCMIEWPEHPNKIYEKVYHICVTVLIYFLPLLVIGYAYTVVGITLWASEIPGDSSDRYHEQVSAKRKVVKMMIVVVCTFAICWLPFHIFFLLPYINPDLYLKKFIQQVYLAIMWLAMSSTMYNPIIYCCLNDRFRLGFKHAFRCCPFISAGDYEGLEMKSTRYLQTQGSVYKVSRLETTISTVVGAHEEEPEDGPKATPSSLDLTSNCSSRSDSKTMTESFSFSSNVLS

This assay concerns the target T1, human NK1 receptor (Homo sapiens, UniProt P25103).
T1 construct: expressed in transfected cells; host or cells: CHO cells infected with the Semliki virus expression system; membrane suspension used
Put plainly: [3H]substance P binding at human NK1 receptors in CHO cells. Conditions: affinity to the NK-1 receptor; [3H]substance P 0.6 nM displacement, CHO cell membranes, 60 min at room temperature. As for the experimental part: The affinity of test compounds for the NK1 receptor was evaluated at human NK1 receptors in CHO cells infected with the human NK1 receptor (using the Semliki virus expression system) and radiolabelled with [^3H]substance P (final concentration 0.6 nM). Binding assays were performed in HEPES buffer (50 mM, pH 7.4) containing BSA (0.04%) leupeptin (8 μg/ml), MnCl2 (3 mM) and phosphoramidon (2 μM). Binding assays consisted of 250 μl of membrane suspension (1.25×10^5 cells/assay tube), […] of buffer of displacing agent and 125 μl of [^3H]substance P. Displacement curves were determined with at least seven concentrations of the compound. The assay tubes were incubated for 60 min at room temperature after which time the tube contents were rapidly filtered under vacuum through GF/C filters presoaked for 60 min with PEI (0.3%) with 2×2 ml washes of HEPES buffer (50 mM, pH 7.4). The radioactivity retained on the filters was measured by scintillation counting. All assays were performed in triplicate in at least 2 separate experiments.
For orientation: Ki means a measure of affinity in units of concentration, obtained from inhibition or displacement. Lower therefore signals tighter binding. `COc1nc(OC)nc(N2CC(c3ccccc3)C3(CCN(C(=O)c4cc(C(F)(F)F)cc(C(F)(F)F)c4)CC3)OC2=O)n1` (stereo not drawn) [Example 17, (5RS)-9-(3,5-bis-trifluoromethyl-benzoyl)-3-(4,6-dimethoxy-[1,3,5]triazin-2-yl)-5-phenyl-oxa-1-3,9-diaza-spiro[5.5]undecan-2-one] gave a Ki of 13.2 nM.
Turning to `CN(C)CCCN1CC(c2ccccc2)C2(CCN(C(=O)c3cc(C(F)(F)F)cc(C(F)(F)F)c3)CC2)OC1=O` (stereo not drawn) [Example 25, (5RS)-9-(3,5-bis-trifluoromethyl-benzoyl)-3-(3-dimethylamino-4-yl-propyl)-5-phenyl-1-oxa-3,9-diaza-spiro[5.5]undecan-2-one], the inhibition constant Ki was 3.47 nM.
Turning to `O=C1OC2(CCN(C(=O)c3cc(C(F)(F)F)cc(C(F)(F)F)c3)CC2)C(c2ccccc2)CN1CCN1CCOCC1` (stereo not drawn) [Example 27, (5RS)-9-(3,5-2is-trifluoromethyl-benzoyl)-3-(2-morpholin-4-yl-ethyl)-5-phenyl-1-oxa-3,9-diaza-spiro[5.5]undecan-2-one hydrochloride], affinity was put at a Ki of 6.31 nM.

For the origin of these results see patent US6599900B2, “1-oxa-3,9-diaza-spiro[5,5]undecan-2-ones” (Syntex (U.S.A.) LLC, priority 2001, dated 2003).
